Measurements taken from publication PMC4279419, “Angiostatic, tumor inflammatory and anti-tumor effects of CXCL4^47–70 and CXCL4L1^47–70 in an EGF-dependent breast cancer model” (Oncotarget, 2014).
Where no end group is shown, it is not given here. The star is where a group is joined. Biotin = O=C1N[C@H]2[C@H](CS[C@H]2CCCCC(=O)*)N1

Legend:
CXCR3A = test: Calcium signaling in CXCR3A-transfectants; type: cell-based; conditions: CXCL10 5 ng/ml after prestimulation with buffer; CHO/CXCR3A; fura 2
Source text: We further tried to reveal the mode of action of CXCL4^47–70 and CXCL4L1^47–70. First, we excluded that either peptide still binds/activates one of the CXCR3 isoforms, the receptors for intact CXCL4 and CXCL4L1. […]
inhibit signaling by intact CXCL10. To study interaction of CXCL447–70 and CXCL4L147–70 with CXCR3A, CHO cells stably transfected with CXCR3A were loaded with the fluorescent dye fura 2 (Struyf et al. J. Immunol. 2009, 182:666). Changes in the intracellular Ca2+ concentrations ([Ca2+]i) in response to CXCL447–70 or CXCL4L147–70 treatment were monitored using a spectrofluorometer. The line in the spectra indicates the fluorescence intensity ratio (i.e. the fluorescence intensity measured after excitation at 340 nm divided by the fluorescence intensity measured after excitation at 380 nm). The results shown (one representative experiment out of three) illustrate a desensitization experiment, in which CHO/CXCR3A cells were stimulated first with a peptide (2 µg/ml) and 100 s later with intact CXCL10 […]
peptides induced a rise in [Ca2+]i. When the cells were stimulated with 5 ng/ml intact CXCL10 100 s after peptide treatment, the response […]
interact with CXCR3A. Arrows indicate the time of addition of the stimulus.
(also on this page, place not known: www.impactjournals.com/oncotarget/ Oncotarget, Supplementary Materials 2014 CXCL4 47–70 CXCL4L1 47–70 CXCL4 47–70 CXCL4L1 47–70 CXCL4 47–70) […]

[1] = tested on: human dermal lymphatic microvascular endothelial cells (HLEC); test: HLEC MTT proliferation assay; type: cell-based; conditions: data not shown
Description: (§1) First, HMVEC and HLEC were seeded at 5 × 10^3 cells/well in EBM-2 + 1% FCS in a 96-well plate, whereas MDA-MB-231 were starved of growth factors overnight by replacing their growth medium with DMEM (serum-free) prior to seeding the tumor cells at 15 × 10^2 cells/well in DMEM + 1% FCS. As for the rest of the assay, the same protocol applies to all cells. Once adherent, cells were incubated with different concentrations of the peptides CXCL4^47–70 and CXCL4L1^47–70 as single stimuli or in combination with recombinant human EGF (3 ng/ml; R&D Systems, Minneapolis, MN) at 37°C/5% CO2. All conditions were tested in triplicate or quadruplicate. After 3 to 4 days, stimulation medium was removed and a sterile MTT solution was added [0.04 g/100 ml thiazolyl blue (Sigma-Aldrich, St. Louis, MO) in 20% PBS/80% RPMI without phenol red (Lonza)] for 3 to 4 hours. The formed formasan crystals were dissolved by replacing the MTT solution with acidic propanol (0.04 M HCl, 0.1% (v/v) Nondet P-40 in absolute isopropanol) and shaking the plate, shielded from light, for 10 minutes. Optical density (OD) was determined at 570 nm and 630 nm. The obtained ODs were processed to proliferation indexes (PI), expressed relative to appropriate buffer controls, i.e. ΔOD570–630X over ΔOD570–630CO.

[2] = tested on: human retinal microvascular endothelial cells (HMVEC); test: HMVEC MTT proliferation assay; type: cell-based; conditions: EGF 3 ng/ml; control medium PI=1; 3 to 4 days; MTT OD570–630; mean ± s.e.m., n=7
Description: as §1

p21 in HMVEC = test: Intracellular p21 content in HMVEC (ELISA); type: cell-based, human; conditions: EGF 20 ng/ml; 15 h; p21:total protein; mean ± s.e.m., n=9; p<0.001 versus control
Description: Signaling assays were slightly adapted to the signaling molecules of interest in this study. HMVEC were stimulated with EGF (20 ng/ml) as a single stimulus or in combination with the peptides CXCL4^47–70 and CXCL4L1^47–70 (0.3 to 10 μg/ml) in order to evaluate their impact on the cell cycle-arresting p21. After 15 hours, the cells were washed three times with ice-cold PBS to stop the stimulation and lysis buffer [1 mM EDTA, 0.5% (v/v) Triton-X, 10 mM NaF, 150 mM NaCl, 1 mM DTT in PBS; pH 7.2–7.4] supplemented with a protease inhibitor cocktail (Sigma) was added. Cell residue was removed from the collected lysates by centrifugation (4°C, 10 min, 1666g). Lastly, the intracellular p21 content was determined by DuoSet® IC ELISA (cat n° DYC1047, R&D Systems) while, in parallel, total protein content was measured in a bicinchoninic acid (BCA) protein assay (Pierce, Rockford, IL).

p21 = conditions: EGF-stimulated endothelial cells; cited from earlier work
Source text: Previously, the EGF-induced reduction of the cyclin-dependent kinase inhibitor p21 was described. […] Therefore, we studied the effects of chemokine-derived peptides on p21 levels and, with it, their ability to arrest the cell cycle. Evaluation of the p21 content in HMVEC did confirm CXCL4^47–70 and CXCL4L1^47–70 to counteract the tendency of EGF to reduce p21 (Figure 2). […] Ad ...

monocyte = conditions: through heteromultimerization with CCL5; cited from earlier work
Source text: Concerning direct cytokine ligand interactions, both positive and negative interactions have been described for intact CXCL4 [33, 34, 37, 38] and its carboxy-terminal peptide. […] In this study we chose two cytokines important in our breast cancer model and verified interaction with CXCL4^47–70 and CXCL4L1^47–70: EGF as g ...

endothelial cell = conditions: compared with CXCL4; cited from earlier work
Source text: Angiogenesis, the formation of an ever more branching network of blood vessels from a pre-existing vascular network, has been established as a requisite for successful tumor growth and cancer progression. Anti-angiogenic therapy thus offers a promising approach to tackle one of the leading causes of mortality worldwide. However, classic anti-angiogenic therapeutics have encountered important hurdles and interest in less obvious targets, including inflammatory mediators such as the chemokines, increases. These chemotactic cytokines play an important role in immunity as they ...

recombinant human CCL5 = target: T1, recombinant human CCL5 (human, UniProt P13501 24-91); test: ELISA; 50 ng/ml CCL5 in PBS coated overnight at room temperature on high protein-binding ELISA plates, blocked with 0.1% casein; dilution curve of biotinylated peptide at 37 °C; detected with peroxidase-conjugated streptavidin, OD450; conditions: both partners purified
T1 construct: CCL5, human, recombinant protein; source: bought: PeproTech
T1 sequence (looked up): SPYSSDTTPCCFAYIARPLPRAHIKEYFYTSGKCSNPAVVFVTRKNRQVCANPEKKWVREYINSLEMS

## CXCL10: intact CXCL10, CXCR3 ligand [reference compound]
CXCR3A
  calcium response to CXCL10: significant increase in [Ca2+]i

## EGF: recombinant human EGF (R&D Systems) [reference compound]
[1]
  HLEC proliferation response to EGF: not responsive to EGF-stimulation
[2]
  Proliferation index (PI), EGF alone: 1.42 ± 0.08
p21 in HMVEC
  intracellular p21 relative to control (100%), EGF alone: 75.82 ± 3.69%

B1: CXCL4: natural human CXCL4 isolated from stimulated platelets; 70 amino acid-long mature protein (protein, UniProt P02776 32-101, looked up)
Platelet factor 4: EAEEDGDLQCLCVKTTSQVRPRHITSLEVIKAGPHCPTAQLIATLKNGRKICLDLQAPLYKKIIKKLLES
p21
  effect on EGF-induced p21 downregulation: appeared to interfere with this p21 downregulation
monocyte
  effect on CCL5 monocyte chemotactic activity: enhances monocyte chemotactic activity of CCL5

B2: CXCL4L1: recombinant human CXCL4L1 isolated from baculovirus-infected Sf9 cells (protein, UniProt P10720 31-104, looked up)
Platelet factor 4 variant: FARAEAEEDGDLQCLCVKTTSQVRPRHITSLEVIKAGPHCPTAQLIATLKNGRKICLDLQALLYKKIIKEHLES
Endothelial cell
  inhibition of CXCL8- and FGF2-induced endothelial cell chemotaxis: more efficiently than CXCL4

B3: NH2-terminally biotinylated CXCL4^47–70 peptide (peptide, UniProt P02776 78-101, looked up)
peptide: Biotin-NGRKICLDLQAPLYKKIIKKLLES
notes: CXCL4/Platelet factor-4 (PF-4), human, last 24 amino acids (residues 47-70) of the 70 amino acid-long mature protein; has Pro58, Lys66, Leu67; numbers count on: the mature protein; The functional assays (chemotaxis, calcium) used the peptide without mention of biotin; also called carboxy-terminal peptide of CXCL4/Platelet factor-4 (PF-4); source: synthetic peptide (Fmoc chemistry, purified by …)
Recombinant human CCL5
  binding result: binds
